# Experimental data: patent publication US6410566B1, “Cyclic amine derivatives and their use as drugs” (Teijin Limited, priority 2000, dated 2002)
# Molecular target: T1, binding of human MCP-1 to THP-1 cells (Homo sapiens, UniProt P41597)
# T1 construct: endogenous in cells; host or cells: THP-1 (human monocytic leukemia cell line), whole cells
# T1 sequence (P41597 1-360 isoform P41597-2): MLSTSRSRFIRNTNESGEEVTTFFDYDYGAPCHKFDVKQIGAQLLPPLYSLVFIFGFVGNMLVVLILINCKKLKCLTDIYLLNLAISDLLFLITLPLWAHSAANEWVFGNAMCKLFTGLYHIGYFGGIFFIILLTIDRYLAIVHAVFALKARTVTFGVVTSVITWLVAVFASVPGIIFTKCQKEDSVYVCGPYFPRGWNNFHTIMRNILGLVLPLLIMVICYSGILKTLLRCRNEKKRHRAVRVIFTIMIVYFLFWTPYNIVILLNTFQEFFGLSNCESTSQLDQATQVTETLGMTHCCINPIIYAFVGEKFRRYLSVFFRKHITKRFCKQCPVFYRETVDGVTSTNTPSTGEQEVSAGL
# Experiment: Inhibition of binding of [125I]-labeled baculovirus expressed human MCP-1 to THP-1 cells (Method 1)
# Settings: Method 1, at 10 μM
# Source text: Measurement of Inhibition of MCP-1 Binding to THP-1 Cells 1. Construction of recombinant baculovirus carrying the human MCP-1 gene Based on the previously published human MCP-1 gene sequence (for example T. Yoshirnura et al., FEBS Lett., 1989, 244, 487-493), two synthetic DNA primers ([NT] and [NT]) flanked by restriction enzyme sites were used to amplify a DNA fragment from cDNA derived from human endothelial cells (purchased from Kurabow Co.); the amplified fragment was cut with the restriction enzymes (PstI and XbaI), ligated into a transfer vector pVL1393 (Invitrogen Co.), and the resulting vector was co-transfected along with infectious baculovirus into Sf-9 insect cells and the supernatant was plaque assayed to yield human MCP-1 gene baculovirus recombinant. […] Using the method of K. Ishii et al. […] The culture supernatant was affinity purified using a heparin Sepharose column (Pharmacia Co.) and then further purified using reverse phase HPLC (Vydac C18 column) to prepare purified human MCP-1. […] 3-1. […] The test. compound was diluted in the assay buffer and used as the test compound solution. [^125I]-labeled human MCP-1 described above was diluted in assay buffer to 1 mCi/mL and used as the labeled ligand solution. In a 96 well filter plate (Millipore Co.), 25 μL of test compound solution, 25 μL of labeled ligand solution and 50 μL of cell suspension were aliquoted into each well in this order, stirred (total reaction volume 100 μL), and incubated for one hour at 18° C. After the reaction, the reaction solution was filtered, and the filter was washed twice with 200 μL of cold PBS (200 μL of cold PBS was added and then filtered). The filter was air-dried and 25 μL of liquid sciatillator was added into each well. The radioactivity retained by the cells on the filter were measured using TopCount (Packard Instrument Co.). To calculate the ability of test compound to inhibit binding of human MCP-1 to THP-1 cells, non-specific binding determined by adding 100 ng of unlabeled human MCP-1 in place of the test compound was subtracted, while the counts with no test compound added was taken as 100%. Inhibition (%)=(1-(A-B)/(C-B))×100 (A, counts with test compound added; B, counts with 100 ng of unlabeled human MCP-1 added; C, counts with [^125I]-labeled human MCP-1 added).
row,Structure (SMILES),inhibition at 10 µM
1,"O=C(CNC(=O)c1cccc(C(F)(F)F)c1)N[C@H]1CCN(Cc2ccccc2)C1 [Compound No. 239, (S)-1-Benzyl-3-[N-{3-(trifluoromethyl)benzoyl}glycyl]aminopyrrolidine]",20 to 50%
2,"O=C(CNC(=O)c1ccccc1)NCC1CCCN(Cc2ccc(Cl)cc2)C1 (stereo not drawn) [Compound No. 434, 3-{(N-Benzoylglycyl)amino}methyl-1-(4-chlorobenzyl)piperidine]",50 to 80%
3,"Nc1ccc(CN2CCC(CNC(=O)CNC(=O)c3cccc(C(F)(F)F)c3)CC2)cc1 [Compound No. 516, 1-(4-Aminobenzyl)-4-[{N-(3-(trifluoromethyl)benzoyl)glycyl}aminomethyl]piperidine]",20 to 50%
4,"O=C(CNC(=O)c1cccc(C(F)(F)F)c1)NCC1CCN(Cc2ccc(NC(=O)c3ccccc3)cc2)CC1 [Compound No. 519, 1-{4-(Benzoylamino)benzyl}-4-[{N-(3-(trifluoromethyl)benzoyl)glycyl}aminomethyl]piperidine]",20 to 50%

# Same assay, conditions: Method 1, at 100 μM
row,Structure (SMILES),inhibition at 100 µM
1,"Cc1cccc(C(=O)NCC(=O)NC2CCCN(Cc3ccc(Cl)cc3)C2)c1 (stereo not drawn) [Compound No. 355, 1-(4-Chlorobenzyl)-3-[{N-(3-methylbenzoyl)glycyl}amino]piperidine]",> 80%

# Molecular target: T1, binding of human MCP-1 to THP-1 cells
# Experiment: Inhibition of binding of [125I]-labeled baculovirus expressed human MCP-1 to THP-1 cells (Method 2)
# Settings: Method 2, at 1 μM
# Source text: 1. Construction of recombinant baculovirus carrying the human MCP-1 gene
# Based on the previously published human MCP-1 gene sequence (for example T. Yoshirnura et al., FEBS Lett., 1989, 244, 487-493), two synthetic DNA primers (5′-[…]-3′ and 5′-[…]-3′) flanked by restriction enzyme sites were used to amplify a DNA fragment from cDNA derived from human endothelial cells (purchased from Kurabow Co.); the amplified fragment was cut with the restriction enzymes (PstI and XbaI), ligated into a transfer vector pVL1393 (Invitrogen Co.), and the resulting vector was co-transfected along with infectious baculovirus into Sf-9 insect cells and the supernatant was plaque assayed to yield human MCP-1 gene baculovirus recombinant.
# 2. Synthesis of [^125I]-labeled human MCP-1 expressed in baculovirus
# Using the method of K. Ishii et al. (Biochem Biophys Research Communications, 1995, 206, 955-961), 5×10^6 Sf-6 insect cells was infected with 5×10^7 PFU (plaque forming units) of the above human MCP-1 recombinant baculovirus and cultured for 7 days in Ex-Cell 401 medium. The culture supernatant was affinity purified using a heparin Sepharose column (Pharmacia Co.) and then further purified using reverse phase HPLC (Vydac C18 column) to prepare purified human MCP-1. The purified human MCP-1 was protein labeled by Amersham Co. using the Bolton Hunter method to yield [^125I]-labeled baculovirus expressed human MCP-1 (specific activity 2000 Ci/mmol).
# 3-2. Measurement of inhibition of binding of [^125I]-labeled baculovirus expressed human MCP-1 to THP-1 cells (Method 2)
# Human monocytic leukemia cell line THP-1 was suspended in assay buffer (50 mM HEPES, pH 7.4, 1.0 mM CaCl2, 5.0% mM MgCl2, 0.5% BSA) to give a cell suspension of a concentration of 1×10^7 cells/mL. The test compound was diluted in the assay buffer and used as the test compound solution. [^125I]-labeled human MCP-1 described above was diluted in assay buffer to 1 mCi/mL and used as the labeled ligand solution. In a 96 well filter plate (Millipore Co.), 25 μL of test compound solution, 25 μL of labeled ligand solution and 50 μL of cell suspension were aliquoted into each well in this order, stirred (total reaction volume 100 μL), and incubated for one hour at 18° C.
# After the reaction, the reaction solution was filtered, and the filter was washed twice with 200 μL of cold PBS (200 μL of cold PBS was added and then filtered). The filter was air-dried and 25 μL of liquid scintillator was added into each well. The radioactivity retained by the cells on the filter were measured using TopCount (Packard Instrument Co.).
# To calculate the ability of test compound to inhibit binding of human MCP-1 to THP-1 cells, non-specific binding determined by adding 100 ng of unlabeled human MCP-1 in place of the test compound was subtracted, while the counts with no test compound added was taken as 100%.
# Inhibition (%)={1−(A−B)/(C−B)}×100
# (A, counts with test compound added; B, counts with 100 ng of unlabeled human MCP-1 added; C, counts with [^125I]-labeled human MCP-1 added).
row,Structure (SMILES),inhibition at 1 µM
1,"CCOc1ccc(CN2CCC(CNC(=O)CNC(=O)c3cc(Cl)ccc3N)CC2)cc1 [Compound No. 1429, 4-[{-(2-Amino-5-chlorobenzoyl)glycyl}aminomethyl]-1-(4-ethoxybenzyl)piperidine]",20 to 50%
2,"CS(=O)(=O)N(c1ccc(Br)cc1C(=O)NCC(=O)NCC1CCN(Cc2ccc(Cl)cc2)CC1)S(C)(=O)=O [Compound No. 1582, 4-[{N-(5-Bromo-2-(bis(methylsulfonyl)amino)benzoyl)glycyl}aminomethyl]-1-(4-chlorobenzyl)piperidine]",20 to 50%
3,"Nc1ccc(Cl)cc1C(=O)NCC(=O)NCC1CCN(Cc2ccc(SC(F)(F)F)cc2)CC1 [Compound No. 1616, 4-[{N-(2-Amino-5-chlorobenzoyl)glycyl}aminomethyl]-1-{4-(trifluoromethylthio)benzyl}piperidine]",20 to 50%
4,"CC(C)c1ccc(CN2CCC(CNC(=O)CNC(=O)c3cc(OC(F)(F)F)ccc3N)CC2)cc1 [Compound No. 1903, 4-[{N-(2-Amino-5-trifluoromethoxybenzoyl)glycyl}aminomethyl]-1-(4-isopropylbenzyl)piperidine]",50 to 80%
5,"Nc1ccc(OC(F)(F)F)cc1C(=O)NCC(=O)N[C@@H]1CCN(Cc2ccc(Cl)cc2Cl)C1 [Compound No. 1905, (R)-3-[{N-(2-Amino-5-(trifluoromethoxy)benzoyl)glycyl}amino]-1-(2,4-dichlorobenzyl)pyrrolidine]",50 to 80%
6,"Nc1ccc(OC(F)(F)F)cc1C(=O)NCC(=O)NCC1CCN(Cc2ccc(Br)cc2)CC1 [Compound No. 1910, 4-[{N-(2-Amino-5-trifluoromethoxybenzoyl)glycyl}aminomethyl]-1-(4-bromobenzyl)piperidine]",50 to 80%
7,"CCOc1ccc(CN2CCC(CNC(=O)CNC(=O)c3cc(F)c(F)cc3N)CC2)cc1OCC [Compound No. 2065, 4-[{N-(2-amino-4,5-difluorobenzoyl)glycyl}aminomethyl]-1-(3,4-diethoxybenzyl)piperidine]",20 to 50%
8,"COc1ccc(CN2CCC(CNC(=O)CNC(=O)c3cc(F)c(F)cc3N)CC2)cc1N [Compound No. 2113, 4-[{N-(2-amino-4,5-difluorobenzoyl)glycyl}aminomethyl]-1-(3-amino-4-methoxybenzyl)piperidine]",> 80%
9,"Nc1ccc(C(F)(F)F)cc1C(=O)NCC(=O)N[C@@H]1CCN(Cc2ccc(Br)cc2F)C1 [Compound No. 2120, (R)-3-[{N-(2-Amino-5-trifluoromethylbenzoyl)glycyl}amino]-1-(4-bromo-2-fluorobenzyl)pyrrolidine]",> 80%
10,"Nc1cc2c(cc1CN1CC[C@@H](NC(=O)CNC(=O)c3cc(C(F)(F)F)ccc3N)C1)OCO2 [Compound No. 2127, (R)-1-(2-Amino-4,5-methylenedioxybenzyl)-3-[{N-(2-amino-5-trifluoromethylbenzoyl)glycyl}amino]pyrrolidine]",> 80%
11,"CN(C)c1cc(CN2CC[C@@H](NC(=O)CNC(=O)c3cc(C(F)(F)F)ccc3N)C2)ccc1Cl [Compound No. 2133, (R)-3-[{N-(2-Amino-5-trifluoromethylbenzoyl)glycyl}amino]-1-{4-chloro-3-(dimethylamino)benzyl}pyrrolidine]",> 80%
12,"Nc1cc(CN2CC[C@@H](NC(=O)CNC(=O)c3cc(C(F)(F)F)ccc3N)C2)ccc1O [Compound No. 2187, (R)-1-(3-Amino-4-hydroxybenzyl)3-[{N-(2Amino-5-trifluoromethylbenzoyl)glycyl}amino]pyrrolidine]",> 80%

# The next lines start with the values.
row,inhibition at 1 µM,Structure (SMILES)
1,20 to 50%,"Cc1ccc(C(=O)NCC(=O)N[C@@H]2CCN(Cc3ccc(Cl)cc3)C2)cc1Br [Compound No. 1098, (R)-1-(4-Chlorobenzyl)-3-[{N-(3-bromo-4-methylbenzoyl)glycyl}amino]pyrrolidine]"
2,20 to 50%,"O=C(CNC(=O)c1cccc(C(F)(F)F)c1)NCC1CCN(Cc2ccc(Cl)cc2)C1 (stereo not drawn) [Compound No. 1463, 3-[{N-(3-Trifluoromethylbenzoyl)glycyl}aminomethyl]-1-(4-chlorobenzyl)pyrrolidine]"
3,50 to 80%,"Nc1cc(F)c(F)cc1C(=O)NCC(=O)NCC1CCN(Cc2ccc(Cl)cc2)C1 (stereo not drawn) [Compound No. 1506, 3-[{N-(2-Amino-4,5-difluorobenzoyl)glycyl}aminomethyl]-1-(4-chlorobenzyl)pyrrolidine]"
4,20 to 50%,"CS(=O)(=O)Nc1ccc(Br)cc1C(=O)NCC(=O)NCC1CCN(Cc2ccc(Cl)cc2)CC1 [Compound No. 1581, 4-[{N-(5-Bromo-2-(methylsulfonylamino)benzoyl)glycyl}aminomethyl]-1-(4-chlorobenzyl)piperidine]"
